Entries after “also recorded” stand apart in the source; their conditions may differ.
Experiments:
[1] = molecular target: T1, rat ovarian aromatase (Rattus norvegicus, UniProt P22443); experiment: in vivo effect on rat ovarian aromatase activity (3H-water method); settings: for in vivo ovarian aromatase inactivation: Example 7, 50 mg/kg body weight/day, regularly cycling BUF/N rats, compared to sesame oil control; for suppression of the ovarian aromatase activity: 50 mg/kg body weight/day s.c. twice daily for four days, 4-day cycling BUF/N rats
T1 construct: from tissue; host or cells: ovaries of BUF/N inbred female rats, 105,000 x g precipitate of the homogenate
T1 sequence (P22443 1-508): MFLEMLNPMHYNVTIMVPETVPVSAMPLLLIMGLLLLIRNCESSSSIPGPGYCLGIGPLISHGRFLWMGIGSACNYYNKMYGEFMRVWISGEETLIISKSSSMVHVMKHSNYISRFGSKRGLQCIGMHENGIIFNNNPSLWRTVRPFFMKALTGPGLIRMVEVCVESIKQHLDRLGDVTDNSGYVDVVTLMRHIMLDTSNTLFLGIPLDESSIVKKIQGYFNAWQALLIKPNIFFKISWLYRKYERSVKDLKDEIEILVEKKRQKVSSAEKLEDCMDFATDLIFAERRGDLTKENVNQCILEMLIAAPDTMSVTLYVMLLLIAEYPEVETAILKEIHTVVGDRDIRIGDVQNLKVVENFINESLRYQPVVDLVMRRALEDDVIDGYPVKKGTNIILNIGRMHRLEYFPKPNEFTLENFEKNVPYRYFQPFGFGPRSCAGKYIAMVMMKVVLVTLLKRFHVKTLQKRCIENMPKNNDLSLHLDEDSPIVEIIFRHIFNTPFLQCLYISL
Protocol: 5α-DHNET (30 mg/ml sesame oil suspension) was injected s.c. twice daily for four days at a dose of 50 mg/kg body weight/day to BUF/N inbred female rats (50-80 days old) showing regular 4-day estrus cycles starting on the estrus day. The control group received injections of sesame oil in the same manner. Both ovaries were removed 3-4 hours after the final injection. The 105,000×g precipitate fraction of the ovarian homogenate was used for the aromatase assay. Aromatase activity was determined by the ^3 H-water method (F. L. Bellino, S. S. H. Gilani, S. S. Eng, Y. Osawa and W. L. Duax, Biochemistry, 15, 4730-4736 (1976)). The sedimented ovarian enzyme preparation was homogenized in 0.1 M phosphate buffer (pH 7.5) and incubated with [1β-^3 H, 4-^14 C]androstenedione (3.18×10^5 dpm ^3 H, 1.18×10^4 dpm ^14 C, 100.2 ng), NADPH (1 mg) and BSA (5 mg) in 0.1 M phosphate buffer (pH 7.5) in a total volume of 1.5 ml for 30 min at 37° C. Trichloroacetic acid solution (0.2 ml of 10% aqueous solution) was added to stop the enzyme reaction. Activated charcoal was added to the mixture and the spun supernatant was passed through a cotton plugged disposable pipet. The filtrate was counted for simultaneous ^3 H and ^14 C in a liquid scintillation spectrophotometer. The ^3 H-water released from the 1β-^3 H labeled androgen quantitatively corresponds to estrogen formation. The results of the in vivo aromatase suppression assay with 5α-DHNET, 6β-bromoandrostenedione (6β-BRA), and 6α-bromoandrostenedione (6α-BRA) are given in FIGS. 3, 4, and 5, respectively. 5α-DHNET suppressed 67% of the ovarian aromatase, whereas 6β-bromoandrostenedione suppressed 72% and 6α-bromoandrostenedione only an insignificant 10%.
A test of the acetate (C2) and n-butyrate (C4) on the in vivo effect on Ovarian Aromatase Activity was conducted. […] All procedures are the same as described in the above examples. […] The slightly better results obtained with the N-butyrate may be due to its higher solubility in sesame oil, indicating a higher retention in the body.

[2] = system: human placental aromatase; experiment: in vitro assay with human placental aromatase; format: biochemical; settings: in vitro assays
Protocol: 5α-DHNET was previously found to be a very weak in vitro aromatase inhibitor (Y. Osawa, Y. Osawa, C. Yarborough & L. Borzynski, Biochem Soc. Transactions, 656-659 (1983)), requiring a 50 μM concentration for a partial inhibition of human placental aromatase in vitro.

[3] = system: SD rat (SPF); experiment: minimum lethal dose in SD rat; format: in vivo
Protocol: For example, the minimum lethal dose of 5α-DHNET for SD rat (SPF) is greater than 5,000 mg/kg.

[4] = system: estrus cycle of BUF/N inbred female rats; experiment: effect on the rat estrus cycle; format: in vivo; settings: for effect on the estrus cycle: single s.c. dose 50 mg/kg body weight on proestrus day
Protocol: BUF/N inbred female rats (50-80 days old) showing regular 4-day estrus cycles were selected by a daily vaginal smear test. A fine powder of the steroid sample was suspended in sesame oil (30 mg/ml) and injected subcutaneously on the proestrus day at a single dose of 50 mg/kg body weight. Vaginal smears were examined daily until normal estrus returned for at least three cycles. The results from the single injection of 5α-DHNET are given in FIG. 1 and those for 6β-bromoandrostenedione are given in FIG. 2 for comparison.

[5] = system: NMU-induced breast carcinomas of BUF/N rats; experiment: effect on growth of NMU-induced breast carcinomas; format: in vivo, rat
Protocol: (§1) The animal model for human mammary carcinomas developed by Gullino et al. (P. M. Gullino, H. M. Pettigrew, and F. H. Grantham, J. Natl. Cancer Inst., 54, 401-414 (1975)) was used for this evaluation of 5α-DHNET.N-Nitrosomethylurea (NMU), wet with 3% acetic acid, was dissolved in distilled water (10 mg/ml) and given in three intravenous injections at a dose of 50 mg/kg body weight to BUF/N inbred female rats of 50 days of age on the first injection. The second injection was 4 weeks and the third injection was 8 weeks after the initial administration. The onset of tumors was monitored by daily visual inspection and by palpation of the mammary regions three times a week. The increase in tumor size was monitored by vernier caliper measurements of the subcutaneous mass. One-half the average of the longest and shortest tumor diameters was taken as the value of r in the formula 4/3 πr^3 used to estimate tumor volume. 5α-DHNET in sesame oil was given i.p. daily at a dose of 50 mg/kg body weight/day for 3 weeks to BUF/N female rats having at least one tumor, 2 cm or larger. The number and size of the rumors were monitored on 12 treated and 13 vehicle-only control animals. The mean initial volume of the tumors was 5.10 and 5.53 ml for the control and treated group, respectively. While the tumors in the control group grew very rapidly, growth arrest was clearly observed in 75% (9/12) of the treated group. The death rate was lower in the treated group (3/12 in 4 weeks) than in the control (5/13 in 3 weeks). […] Averaged relative tumor volume is compared in FIG. 7. This also indicates the suppression of tumor growth by the 5α-DHNET treatment. While 24 new tumors developed in 9 control rats in 3 weeks, only 7 developed in 11 treated rats.

[6] = system: NMU-induced breast carcinomas of BUF/N rats; experiment: preventive effect on incidence of NMU-induced breast carcinoma, first protocol; format: in vivo, rat
Protocol: as §1
The preventive effect of 5α-DHNET to lower the incidence of breast carcinoma was assessed by use of the same animal model as in Example 3 but by modification of the administration protocol. The vehicle-only control was prepared as described in Example 3. Oophorectomy was carried out at the 4th week. 5α-DHNET at a dose of 50 mg/kg body weight/day was given i.p. daily for one week starting at the 4th week. The onset of tumors, their number and location in each animal were recorded daily. The results are given in FIGS. 9 and 10 and in Table 2. The control group developed tumors in 100% (16/16) of the animals by the 98th day after the first NMU injection. At this point tumor incidence for the 5α-DHNET treated and oophorectomized groups was 13% (2/16) and 38% (6/16), respectively. […] At the 180th day the death rate for the 5α-DHNET treated and oophorectomized group was 25% and 31%, respectively, compared to 69% for the control group. The mean latent period of tumor development was 72, 101, and 116 days for the control, OVX, and 5α-DHNET group, respectively.

[7] = system: NMU-induced breast carcinomas of BUF/N rats; experiment: effect on breast tumor incidence, protocol II; format: in vivo, rat
Protocol: The preventive and suppressive effect of 5α-DHNET on breast carcinomas was further examined in order to ascertain that this agent is effective under general conditions rather than limited to a specifically controlled protocol. Only a single dose of NMU was given to the BUF/N rats at 50th day of age and an oophorectomy was carried our at the 6th week after the NMU injection. The 5α-DHNET group received the agent for one week starting at the 6th week at a dose of 50 mg/kg body weight/day as given in FIG. 11. Monitoring was carried out as described in Example 4. After 41 weeks of observation, the tumor incidence was 65%, 33%, and 38% for the control, 5α-DHNET, and OVX group, respectively. The average number of tumors per tumor carrying rat was 2.6, 1.5, and 1.0 for the control, 5α-DHNET, and OVX group, respectively.

[8] = system: NMU-induced breast carcinomas of BUF/N rats; experiment: effect on breast tumor incidence, protocol III; format: in vivo, rat
Protocol: The protocol was further modified to evaluate the generality of the effect of 5α-DHNET on breast carcinomas. […] Oophorectomy was also carried out at 3 weeks after the NMU injection. After 37 weeks of monitoring, the tumor incidence was 87%, 38%, and 19% for the control, 5α-DHNET,and OVX group, respectively. The average number of tumors per tumor carrying animal was 2.8, 1.5 and 1.0 for the central, 5α-DHNET, and OVX group, respectively.

[9] = rat, in vivo
[10] = system: human placental aromatase; settings: cited from earlier work; for concentration for inhibition of human placental aromatase in vitro: for 5α-DHNET a partial inhibition

C#C[C@]1(OC(C)=O)CC[C@H]2[C@@H]3CC[C@H]4CC(=O)CC[C@@H]4[C@H]3CC[C@@]21C [5α-DHNET Ac, 5α-DHNET acetate]
in vivo ovarian aromatase inactivation [1]: 68.2%

C#C[C@]1(OC(=O)CCC)CC[C@H]2[C@@H]3CC[C@H]4CC(=O)CC[C@@H]4[C@H]3CC[C@@]21C [5α-DHNET But, 5α-DHNET butyrate]
in vivo ovarian aromatase inactivation [1]: 79.4%

C#C[C@]1(O)CC[C@H]2[C@@H]3CC[C@H]4CC(=O)CC[C@@H]4[C@H]3CC[C@@]21C [5α-DHNET, 5α-dihydro-19-norethisterone]
potency as aromatase inhibitor relative to 6α- and 6β-bromoandrostenedione [2]: thousand-fold less potent | minimum lethal dose [3]: greater than 5,000 mg/kg | animals with cessation of estrus cycles / animals tested ([4]; single s.c. dose 50 mg/kg body weight): 4/4 | effect on the estrus cycle [4]: cessation of the estrus cycles for at least four cycles | suppression of the ovarian aromatase activity [1]: 67% | in vivo ovarian aromatase inactivation [1]: 67.9% | effect on growth of breast carcinomas ([5]; 50 mg/kg body weight/day daily for three weeks): significantly suppressed the growth of breast carcinomas | animals with growth arrest of tumors ([5]; 50 mg/kg body weight/day i.p. for 3 weeks, 9/12 treated): 75% | death rate ([5]; 50 mg/kg body weight/day i.p. for 3 weeks, in 4 weeks): 3/12 | initially observed tumors disappeared ([5]; 3 week period, 6/47): 13% | tumors regressed ([5]; 3 week period, 20/48): 42% | tumors growing ([5]; 3 week period, 28/48): 58% | Total No. of Tumors disappeared ([5]; 3 wk): 6 | Total No. of Tumors growing ([5]; 3 wk): 28 | Total No. of Tumors regressed ([5]; 3 wk): 20 | share of responded animals maintained without a growth of tumors after stopping administration ([5]; another 3 weeks after stopping): approximately half | Total No. of Tumors 3 wk ([5]; end of 3 wk treatment, 11 rats): 48 | Total No. of Tumors newly developed ([5]; in 3 weeks, 11 treated rats): 7 | Total No. of Tumors start ([5]; start of treatment, 11 rats): 47 | tumor incidence ([6]; 98th day after first NMU injection, 50 mg/kg/day i.p. one week from 4th week, 2/16): 13% | death rate ([6]; 180th day after first NMU injection, 4/16): 25% | % Tumor Incidence ([6]; 180th day after first NMU injection, 8/16): 50% | effect on incidence of breast carcinoma and death rate ([6]; Examples 4-6, given at different times): significantly lower the incidence of breast carcinoma and the death rate as effectively as complete oophorectomy | Average No. of tumors per tumor-carrying rat ([6]; first protocol): 1.8 | Mean Latent Period of tumor development ([6]; first protocol): 116 days | tumor incidence ([7]; after 41 weeks, single NMU dose, 50 mg/kg/day for one week from 6th week): 33% | average number of tumors per tumor carrying rat ([7]; protocol II): 1.5 | tumor incidence ([8]; after 37 weeks, treatment 3 weeks after single NMU dose): 38% | average number of tumors per tumor carrying animal ([8]; protocol III): 1.5 | body weight compared to control rats [9]: did not show any significant difference of body weight from the control rats | concentration for inhibition of human placental aromatase in vitro [10]: 50 µM | in vitro aromatase inhibitory activity ([10]; previous in vitro studies): essentially inactive

C[C@]12CCC(=O)C=C1[C@@H](Br)C[C@@H]1[C@@H]2CC[C@]2(C)C(=O)CC[C@@H]12 [6α-bromoandrostenedione, reference compound]
suppression of the ovarian aromatase activity [1]: 10% | concentration for inhibition of human placental aromatase in vitro [10]: 0.0082 µM

C[C@]12CCC(=O)C=C1[C@H](Br)C[C@@H]1[C@@H]2CC[C@]2(C)C(=O)CC[C@@H]12 [6β-bromoandrostenedione, reference compound]
effect on the estrus cycle ([4]; 50 mg/kg): no effect on the cycle; also recorded: failed to affect the estrus cycle | suppression of the ovarian aromatase activity [1]: 72% | concentration for inhibition of human placental aromatase in vitro [10]: 0.056 µM
